A melting point compilation (Tetko et al.; mined from patent text by program, amines drawn as free bases though some values may be those of a salt)

SMILES	melting point
CCOC(=O)C(C)Oc1ncn(-c2ccc(Br)cc2)n1 (stereo not given)	64 to 66 °C
CCCCC(=O)N(Cc1ccc(-c2ccccc2-c2nc(=O)o[nH]2)cc1)c1sccc1C(=O)OC	154 to 155 °C
C/C(=C\c1cccc2ccccc12)C(=O)O	155 °C
C=Cn1cc(C(=O)O)c(=O)c2c(C)c(F)c(N3CCNCC3)c(F)c21	222 to 225 °C
Cc1oc2ccc(N)cc2c1C	77 to 78 °C
Cc1cc(C(F)(C(F)(F)F)C(F)(F)F)ccc1NC(=O)c1ccnc(Cl)c1C(=O)NC(C)C	275 to 277 °C
COCc1ccccc1-c1ccc(C(=O)O)cc1	164 to 166 °C
COc1nccc(-c2c(-c3ccc(F)cc3)ncn2C2CCC(O)(CO)CC2)n1 (stereo not given)	225 to 226 °C
CC(C)CCc1c(-c2ccc(S(C)(=O)=O)cc2)cnn(-c2ccc(F)c(F)c2)c1=O	55 to 58 °C
Cc1ccc(S(=O)(=O)OCC(C)(C)CS(N)(=O)=O)cc1	59 to 61 °C
Cn1c(C(=O)NC2CCCCC2)nc(-c2ccc(Cl)cc2Cl)c1-c1ccc(Cl)cc1	165 °C
CC1CC(=O)NN=C1c1ccc2c(ccc(=O)n2C)c1 (stereo not given)	248 to 251 °C
COC(=O)Cc1c(C)nc(C)nc1Cl	53 to 54 °C
COc1ccc(C(=O)c2c(F)cccc2F)cc1CC(=O)O	187 °C
Cc1oc(C=Cc2ccc(Cl)cc2)nc1CC(=O)O	157 to 158 °C
CCN(CC)CCOc1ccc(C(O)(CC)c2cccc(Cl)c2)cc1 (stereo not given)	64 to 65 °C
COc1c(C(=O)O)cc([N+](=O)[O-])c2ccccc12	102 to 104 °C
COc1cc(CC(=O)O)ccc1OCCNC(=O)C1Cc2ccccc2N1S(=O)(=O)c1ccc(-c2cc(C(F)(F)F)ccc2Cl)cc1 (stereo not given)	74 to 76 °C
Cc1cc(CCC(=O)O)cc(-c2nc(=O)c3ccccc3s2)n1	233 to 235 °C
N#Cc1cnn2c1N(C(=O)CN1CCN(CC#CCN3CCCC3=O)CC1)CC=C2c1cccc(C(F)(F)F)c1	124 to 126 °C
Nc1cccc2c1S(=O)(=O)CC2	117 to 119 °C
CNC(=O)CC1=CC2(CCCC2)c2ccc(Cl)cc21	190 °C
COC1C(O)CCC(O)(CSc2ccccc2)C1C1(C)OC1CC=C(C)C (stereo not given)	94 to 96 °C
CC(C)(C)NCC(O)c1ccc(F)cc1 (stereo not given)	117 °C
N=C(N)c1cccc(Cc2c[nH]cn2)c1O	249 °C

SMILES	melting point
COC(=O)Cn1c(C(=O)NC(N)=S)c(C)c2cc(C)ccc21	210 to 212 °C
Cc1c(CC(=O)N(C)C)oc2ccc(F)cc12	88 to 90 °C
CCOC(=O)CCc1cn(Cc2ccccc2)nc1O	75 to 76 °C
COc1ccc(CCNC(C)=O)cc1OC1CCCC1	87 to 88 °C
COc1ccc(-c2cc3c(OC)cc(OC)cc3nc2OCC(=O)OCc2ccccc2)cc1	114 to 115 °C
COc1ccccc1N1CCN(C[C@H]2COc3ccc4nc(C)ccc4c3O2)CC1	44 to 47 °C
O=Cc1cccc(OCCCN2C(=O)c3ccccc3C2=O)c1	102 to 104 °C
CC(C)(C)OC(=O)C(C1NC(C(=O)O)C2(CCOCC2)S1)N1C(=O)c2ccccc2C1=O (stereo not given)	199 to 200 °C
OC(c1ccccc1)C1CCN1C(c1ccccc1)c1ccccc1 (stereo not given)	87.5 to 88.5 °C
CCCc1c(OCCCS(=O)(=O)c2ccc(C3=CCC(=O)O3)cc2)ccc(C(C)=O)c1O	135 to 136 °C
CCCCc1cc2cccnc2[nH]1	46 to 47 °C
O=S(=O)(Cl)c1ccc2oc(-c3ccncc3)cc2c1	210 °C
CC(NC(=O)C1CCNCC1)c1ccccc1 (stereo not given)	136 °C
Cc1cc(OC(C)c2sc(-c3ccc(C(F)(F)F)cc3F)nc2C)ccc1OC(C)(C)C(=O)O (stereo not given)	133 °C
CN(CCSC(=O)Cc1ccccc1Nc1c(Cl)cccc1Cl)CC1(S)CCCCC1	55 °C
N#CC1=Cc2ccc(OCc3ccccc3)cc2OC1	108 to 109 °C
O=C1Cc2ccccc2C(c2ccccc2F)N1 (stereo not given)	167 to 169 °C
CCCc1c(C(=O)C(C)C)c2ccc(C(N)=O)cc2n1Cc1ccccc1NC(C)=O	235 to 236 °C
N=C(CC=O)c1ccccc1	80 to 82 °C
CCCCn1c(=O)c(NC(=O)Nc2cc(CO)ccc2C(C)(C)C)c(-c2cccc(OC)c2)c2cccnc21	102 to 105 °C
O=[N+]([O-])c1ccc(Sc2ccc(O)c(Cl)c2Cl)cc1	204 °C
CC(C)c1ccc(N(Cc2ccc(O)cc2)C(=O)C2CCCc3ccccc32)cc1 (stereo not given)	156 °C
Cc1[nH]c(/C=C2\C(=O)Nc3ccc(F)cc32)c(C)c1C(=O)NCCCCCC(=O)NO	210 °C
COc1ccc2oc(Cc3cccc(C(F)(F)F)c3)c(CC#N)c2c1	116 °C
COc1cc(F)ccc1CCN1c2nc(-c3ccncc3)cc(=O)n2CCC1(C)C	217 to 219 °C

SMILES	melting point
O=C(O)C1=COCC(C(=O)O)=C1	87 to 90 °C
COC(=O)CCCC(=O)NS(=O)(=O)c1ccc(N)cc1	> 260 °C
CC(=O)c1cccc(-c2nc(Nc3ccc(OC(F)(F)F)cc3)cc(N3CCOCC3)n2)c1	218 to 220 °C
CCCCN(Cc1ccccc1)CC1CCc2c(C)cc3c(c2C1=O)CCC(=O)N3 (stereo not given)	190 to 193 °C
O=C(Cc1cccnc1)c1ccc(Cl)cc1Cl	55 to 56 °C
Cc1cc(NC(=O)NC(=O)c2ccccc2Cl)nc(C)c1-c1ccccc1	176 to 189 °C
N=C(N)Nc1nc(CSCCNC2=C([N+](=O)[O-])CCCN2)cs1	211 to 212 °C
N#CCCNC(=O)c1cccc(-c2cccc(Oc3ccc4[nH]ccc4c3)n2)c1	150 to 151 °C
Cc1ccc(Cc2cnc(NCCCCNc3ccc(Cl)cn3)[nH]c2=O)cn1	214 to 215 °C
O=C(c1cc(=O)c2ccc(OCc3ccccc3)cc2[nH]1)N1CCC(Cc2ccccc2)CC1	228 °C
CC(C)CCNCCCN1C(=O)C2(COc3cc4c(cc32)CCO4)c2ccccc21 (stereo not given)	98 to 101 °C
CC(=C1SCSCS1)c1ccc(OCCCN2CCOCC2)cc1	95 to 98 °C
O=C(Cc1ccc(CN2CCCC2)cc1)NCc1ccc(Br)cc1	107 to 109 °C
CCc1nn(Cc2nccn2C)c2c(=O)[nH]c(-c3cc(S(C)(=O)=O)ccc3OCC(C)C)nc12	253 to 254 °C
COc1cc(Nc2c(C#N)cnc3cc(-c4ccc(CO)cc4)sc23)c(Cl)cc1Cl	239 to 240 °C
O=C(CC(=O)C(F)F)c1cccs1	78 to 80 °C
CC(C)(C)OC(=O)Nc1ncc(-c2ccc(C#Cc3ccccc3)cc2)n1C(=O)OC(C)(C)C	131 to 132 °C
O=C(O)c1cc2cc(Cl)c(Cl)cc2nc1N[C@H](Cc1c[nH]c2ccccc12)C(=O)O	> 250 °C
COc1ccc(C(=O)Sc2ccccn2)cc1	73 °C
CCOC(=O)c1cnn2c1nc(OCCCN(C)C)c1cnc3c(cnn3CC)c12	106 to 107 °C
Cc1cccc(-c2nc(NC(=O)c3ccc(Cl)nc3)sc2-c2ccnc(NC3CCCC3)c2)c1	211 to 212 °C
CCCC(=O)c1c[nH]c2c(F)cccc2c1=O	176 to 178 °C
C=C1CCCc2c(C(=O)OCC)n(C)c3cccc1c23	45 to 49 °C
CC1(C)C=C(N2CCCC2=O)c2cc(C#N)ccc2C1	131 to 132 °C
c1ccc(-c2nc3ccccn3c2-c2ccnc(-c3ccc(N4CCOCC4)cc3)c2)nc1	145 °C

SMILES	melting point
C/C(=C\CNC(=O)c1ccccc1)c1ccccc1	139 °C
Nc1ccc2c(c1)OCCNC2=O	151 to 152 °C
CCOC(=O)c1ccc2nc(N)oc2c1	211 to 212 °C
COc1c(NC(=O)Nc2ccc(Oc3ccoc(=O)c3)c3ccccc23)cc(C(C)(C)C)cc1NS(C)(=O)=O	185 to 187 °C
CC(=O)CSc1ccc(Cl)cc1C(=O)O	139 to 140 °C
CC(C)(C)OC(=O)NCc1cc(-c2cccnc2)no1	67 to 69 °C
O=[N+]([O-])c1cc(OCc2ccccc2)cc(C2CO2)c1 (stereo not given)	54 to 55 °C
c1nnc2c3c(c(NCCCCN4CCCC4)nn12)CCCC3	158 to 160 °C
CSc1nn(-c2c(Cl)cc(C(F)(F)F)cc2Cl)c(C)c1C(=O)c1cccc(C)c1	103 to 104 °C
NC(=NO)c1ncn2c1N1CCN=C1c1ccccc1-2	209 to 212 °C
CCCCc1nc2cccnc2n1Cc1ccc2c(Cl)c(C(=O)OC)sc2c1	127 to 129 °C
C=C1CCCN(C(=O)c2ccc(NC(=O)c3ccccc3C)cc2)c2ccccc21	216 to 217 °C
COc1cc2ncnc(N3CCc4ccc(-c5ccccc5)cc43)c2cc1OC	175 to 177 °C
COc1cc(N)c(Cl)cc1C(=O)NCCC1CN(Cc2ccccc2)CCO1 (stereo not given)	68 to 72 °C
CSc1ccc(CN2C(=O)C3(COc4cc5c(cc43)OCO5)c3ccccc32)cc1 (stereo not given)	128 to 130 °C
CCN(CC)CCOc1ccc(Nc2ncc3c(n2)N(C(C)C)C(=O)N(c2c(Cl)cccc2Cl)C3)cc1	125 °C
CC(=O)OC1CSC(Oc2c(C)ccnc2-c2cccnc2)C(OC(C)=O)C1OC(C)=O (stereo not given)	143 °C
O=C(NCCO)c1cc(-c2cccc3nn(Cc4cccc(C(F)(F)F)c4)cc23)ccn1	131 to 132 °C
CN(c1cccc2cc(C(=O)O)[nH]c12)S(=O)(=O)c1nccn1C	241 to 242 °C
CC(C)C(NC(=O)c1ccc(C(=O)NC(CCC(=O)O)C(=O)O)cc1)C(=O)N1CCCC1C(=O)NC(C(=O)C(F)(F)F)C(C)C (mixture of isomers)	74 to 76 °C
Cc1[nH]c(=O)c(C#N)cc1-c1ccccc1OCC(C)C(=O)O (stereo not given)	228 to 230 °C
O=C(NOC1CCCCO1)c1ccc(C(=O)Nc2cccc(Nc3nc(-c4cccnc4)cs3)c2)cc1 (stereo not given)	224 °C
Oc1ccc([C@H]2CC[C@H](NCCNc3ccccc3)CC2)cc1	180 to 184 °C
COCC#Cc1ccc(C(CC2CCCC2)C(=O)O)cc1 (stereo not given)	82 to 85 °C
COC1CN(c2ccc(NC(=O)OCc3ccccc3)cc2F)C1	95 to 96.5 °C
